According to the kinase profiling compilation of Christmann-Franck et al. (2016):

What was measured:
Experiment in all cases: KINOMEscan competition binding
Conditions in all cases: compound 10.0 µM
SRPK1 (human) = SRPK1 (human) (UniProt Q96SB4)
MYLK (human) = MYLK (human) (UniProt Q15746)
CSNK2A1 (human) = CSNK2A1 (human) (UniProt P68400)
LATS1 (human) = LATS1 (human) (UniProt O95835)
PRKCQ (human) = PRKCQ (human) (UniProt Q04759)
PRKCH (human) = PRKCH (human) (UniProt P24723)
NUAK2 (human) = NUAK2 (human) (UniProt Q9H093)
RIPK1 (human) = RIPK1 (human) (UniProt Q13546)
MKNK1 (human) = MKNK1 (human) (UniProt Q9BUB5)
AURKC (human) = AURKC (human) (UniProt Q9UQB9)
CLK1 (human) = CLK1 (human) (UniProt P49759)
FLT4 (human) = FLT4 (human) (UniProt P35916)
MELK (human) = MELK (human) (UniProt Q14680)
MAP4K4 (human) = MAP4K4 (human) (UniProt O95819)
CAMK2D (human) = CAMK2D (human) (UniProt Q13557)
STK35 (human) = STK35 (human) (UniProt Q8TDR2)
BRSK1 (human) = BRSK1 (human) (UniProt Q8TDC3)
CSNK2A2 (human) = CSNK2A2 (human) (UniProt P19784)
ERBB2 (human) = ERBB2 (human) (UniProt P04626)
CDK9 (human) = CDK9 (human) (UniProt P50750)
PAK1 (human) = PAK1 (human) (UniProt Q13153)
CDC2L2 (human) = CDC2L2 (human) (UniProt Q9UQ88)
TNIK (human) = TNIK (human) (UniProt Q9UKE5)
MST4 (human) = MST4 (human) (UniProt Q9P289)
PRKD1 (human) = PRKD1 (human) (UniProt Q15139)
MAPK6 (human) = MAPK6 (human) (UniProt Q16659)
NLK (human) = NLK (human) (UniProt Q9UBE8)
AKT3 (human) = AKT3 (human) (UniProt Q9Y243)
LIMK2 (human) = LIMK2 (human) (UniProt P53671)
CAMK2B (human) = CAMK2B (human) (UniProt Q13554)
AKT2 (human) = AKT2 (human) (UniProt P31751)
CSNK1G2 (human) = CSNK1G2 (human) (UniProt P78368)
PRKAA1 (human) = PRKAA1 (human) (UniProt Q13131)
SIK2 (human) = SIK2 (human) (UniProt Q9H0K1)
FGR (human) = FGR (human) (UniProt P09769)
RPS6KA4 KD2 (human) = RPS6KA4 KD2 (human) (UniProt O75676)
CDK8 (human) = CDK8 (human) (UniProt P49336)
CSNK1G3 (human) = CSNK1G3 (human) (UniProt Q9Y6M4)
CAMK2A (human) = CAMK2A (human) (UniProt Q9UQM7)
RIOK1 (human) = RIOK1 (human) (UniProt Q9BRS2)
RIOK1 (human), sequence (Q9BRS2 whole entry, looked up): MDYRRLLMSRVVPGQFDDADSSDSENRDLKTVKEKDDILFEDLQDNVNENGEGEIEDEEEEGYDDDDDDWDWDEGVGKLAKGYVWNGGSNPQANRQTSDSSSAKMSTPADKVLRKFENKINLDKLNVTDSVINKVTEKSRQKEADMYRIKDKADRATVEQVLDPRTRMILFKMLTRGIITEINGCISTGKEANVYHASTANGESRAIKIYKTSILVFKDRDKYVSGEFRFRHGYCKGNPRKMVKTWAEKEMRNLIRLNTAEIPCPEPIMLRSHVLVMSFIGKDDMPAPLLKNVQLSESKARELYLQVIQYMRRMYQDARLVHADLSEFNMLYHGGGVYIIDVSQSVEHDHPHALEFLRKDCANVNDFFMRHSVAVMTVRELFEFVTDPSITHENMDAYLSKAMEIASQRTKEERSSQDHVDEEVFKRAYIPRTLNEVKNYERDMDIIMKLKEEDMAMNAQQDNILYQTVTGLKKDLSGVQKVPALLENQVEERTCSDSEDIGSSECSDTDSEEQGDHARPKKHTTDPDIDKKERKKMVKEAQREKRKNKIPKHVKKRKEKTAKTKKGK

CAMK2A (human), sequence (Q9UQM7 whole entry, looked up): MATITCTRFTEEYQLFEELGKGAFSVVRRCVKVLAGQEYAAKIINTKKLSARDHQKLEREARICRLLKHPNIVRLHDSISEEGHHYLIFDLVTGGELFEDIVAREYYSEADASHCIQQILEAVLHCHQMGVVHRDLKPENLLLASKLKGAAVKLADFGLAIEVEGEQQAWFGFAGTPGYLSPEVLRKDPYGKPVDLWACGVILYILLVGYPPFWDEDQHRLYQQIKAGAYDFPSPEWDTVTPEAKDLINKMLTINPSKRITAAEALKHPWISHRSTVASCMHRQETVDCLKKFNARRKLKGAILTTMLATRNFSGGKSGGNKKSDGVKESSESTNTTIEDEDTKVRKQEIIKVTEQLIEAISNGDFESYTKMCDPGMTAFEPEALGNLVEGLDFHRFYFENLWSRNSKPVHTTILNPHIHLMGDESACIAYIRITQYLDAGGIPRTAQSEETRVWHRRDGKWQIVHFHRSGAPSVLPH
FLT4 (human), sequence (P35916 whole entry, looked up): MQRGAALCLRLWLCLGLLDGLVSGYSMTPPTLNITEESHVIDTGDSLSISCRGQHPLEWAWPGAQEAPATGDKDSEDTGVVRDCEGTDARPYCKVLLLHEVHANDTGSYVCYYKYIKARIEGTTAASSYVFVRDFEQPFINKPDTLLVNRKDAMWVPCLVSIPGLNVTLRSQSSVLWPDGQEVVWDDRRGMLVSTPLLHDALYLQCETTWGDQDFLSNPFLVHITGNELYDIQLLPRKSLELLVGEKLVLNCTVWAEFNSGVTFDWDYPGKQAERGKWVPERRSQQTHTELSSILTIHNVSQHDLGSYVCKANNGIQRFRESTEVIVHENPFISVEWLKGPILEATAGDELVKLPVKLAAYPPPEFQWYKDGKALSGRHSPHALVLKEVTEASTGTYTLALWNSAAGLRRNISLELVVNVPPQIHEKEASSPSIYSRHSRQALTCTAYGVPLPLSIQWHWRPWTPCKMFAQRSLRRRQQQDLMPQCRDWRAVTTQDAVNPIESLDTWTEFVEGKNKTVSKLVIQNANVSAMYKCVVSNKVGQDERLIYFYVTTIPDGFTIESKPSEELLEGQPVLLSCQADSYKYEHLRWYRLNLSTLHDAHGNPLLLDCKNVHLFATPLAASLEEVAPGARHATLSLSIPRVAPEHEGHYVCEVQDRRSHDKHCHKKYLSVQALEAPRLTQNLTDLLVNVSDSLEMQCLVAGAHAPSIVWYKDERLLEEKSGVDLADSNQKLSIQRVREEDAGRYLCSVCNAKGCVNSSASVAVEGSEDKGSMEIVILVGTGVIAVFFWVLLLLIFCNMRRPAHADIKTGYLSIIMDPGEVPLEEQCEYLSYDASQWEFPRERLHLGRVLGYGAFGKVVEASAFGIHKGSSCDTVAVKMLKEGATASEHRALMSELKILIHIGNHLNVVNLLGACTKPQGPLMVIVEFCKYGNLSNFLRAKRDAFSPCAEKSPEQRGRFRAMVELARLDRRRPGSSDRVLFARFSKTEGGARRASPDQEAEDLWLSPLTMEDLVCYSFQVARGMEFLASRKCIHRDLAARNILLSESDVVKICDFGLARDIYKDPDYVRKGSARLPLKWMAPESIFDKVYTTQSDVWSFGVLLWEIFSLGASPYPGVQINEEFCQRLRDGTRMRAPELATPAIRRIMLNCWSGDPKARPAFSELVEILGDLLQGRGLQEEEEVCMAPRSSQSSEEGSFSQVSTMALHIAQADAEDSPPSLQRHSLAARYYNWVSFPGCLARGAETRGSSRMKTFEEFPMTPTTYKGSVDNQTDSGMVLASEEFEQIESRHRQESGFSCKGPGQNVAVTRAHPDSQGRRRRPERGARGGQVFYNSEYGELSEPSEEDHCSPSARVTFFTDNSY
CDK9 (human), sequence (P50750 whole entry, looked up): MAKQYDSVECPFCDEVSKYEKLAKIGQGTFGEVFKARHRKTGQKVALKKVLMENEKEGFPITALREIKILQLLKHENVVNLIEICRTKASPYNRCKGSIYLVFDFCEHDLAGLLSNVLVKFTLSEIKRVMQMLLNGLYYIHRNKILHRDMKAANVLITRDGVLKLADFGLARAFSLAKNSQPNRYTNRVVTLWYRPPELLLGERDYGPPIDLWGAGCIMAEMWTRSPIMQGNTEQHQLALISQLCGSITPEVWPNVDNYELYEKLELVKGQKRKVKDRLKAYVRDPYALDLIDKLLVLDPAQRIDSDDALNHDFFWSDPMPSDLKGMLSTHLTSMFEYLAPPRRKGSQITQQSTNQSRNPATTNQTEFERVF
TNIK (human), sequence (Q9UKE5 whole entry, looked up): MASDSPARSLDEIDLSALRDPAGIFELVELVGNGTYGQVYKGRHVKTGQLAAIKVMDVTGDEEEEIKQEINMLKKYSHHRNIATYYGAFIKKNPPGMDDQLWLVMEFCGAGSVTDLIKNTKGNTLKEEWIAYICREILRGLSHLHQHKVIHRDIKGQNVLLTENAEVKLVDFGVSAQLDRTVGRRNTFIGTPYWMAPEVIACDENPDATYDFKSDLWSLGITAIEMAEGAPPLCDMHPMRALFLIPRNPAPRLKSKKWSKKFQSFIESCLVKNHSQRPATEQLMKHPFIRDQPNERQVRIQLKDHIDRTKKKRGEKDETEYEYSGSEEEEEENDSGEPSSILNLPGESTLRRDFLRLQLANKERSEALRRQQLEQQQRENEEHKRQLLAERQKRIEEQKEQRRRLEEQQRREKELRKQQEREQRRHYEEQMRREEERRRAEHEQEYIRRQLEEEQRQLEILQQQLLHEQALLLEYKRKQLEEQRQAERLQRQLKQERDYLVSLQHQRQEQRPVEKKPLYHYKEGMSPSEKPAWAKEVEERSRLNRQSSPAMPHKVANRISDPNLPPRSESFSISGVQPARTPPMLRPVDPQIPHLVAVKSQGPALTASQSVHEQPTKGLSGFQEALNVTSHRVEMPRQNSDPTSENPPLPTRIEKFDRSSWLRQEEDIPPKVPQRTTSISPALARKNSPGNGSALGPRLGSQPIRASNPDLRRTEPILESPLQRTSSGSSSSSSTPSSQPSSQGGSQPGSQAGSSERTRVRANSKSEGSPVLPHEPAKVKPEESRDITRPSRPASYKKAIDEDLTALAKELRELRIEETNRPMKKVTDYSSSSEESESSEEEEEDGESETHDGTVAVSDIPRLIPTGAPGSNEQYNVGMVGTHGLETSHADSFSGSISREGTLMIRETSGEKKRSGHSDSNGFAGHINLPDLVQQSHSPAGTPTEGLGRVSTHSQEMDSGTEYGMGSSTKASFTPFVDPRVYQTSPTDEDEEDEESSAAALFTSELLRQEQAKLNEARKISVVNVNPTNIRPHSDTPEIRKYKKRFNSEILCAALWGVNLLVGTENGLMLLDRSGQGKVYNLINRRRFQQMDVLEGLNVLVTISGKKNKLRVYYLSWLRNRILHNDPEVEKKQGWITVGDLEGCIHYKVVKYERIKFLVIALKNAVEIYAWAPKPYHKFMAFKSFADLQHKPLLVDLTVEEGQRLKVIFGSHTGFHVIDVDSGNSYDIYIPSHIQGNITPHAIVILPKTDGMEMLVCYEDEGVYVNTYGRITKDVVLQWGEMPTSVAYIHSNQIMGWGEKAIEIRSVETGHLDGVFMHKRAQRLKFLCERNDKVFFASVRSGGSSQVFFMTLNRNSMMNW
PRKCQ (human), sequence (Q04759 whole entry, looked up): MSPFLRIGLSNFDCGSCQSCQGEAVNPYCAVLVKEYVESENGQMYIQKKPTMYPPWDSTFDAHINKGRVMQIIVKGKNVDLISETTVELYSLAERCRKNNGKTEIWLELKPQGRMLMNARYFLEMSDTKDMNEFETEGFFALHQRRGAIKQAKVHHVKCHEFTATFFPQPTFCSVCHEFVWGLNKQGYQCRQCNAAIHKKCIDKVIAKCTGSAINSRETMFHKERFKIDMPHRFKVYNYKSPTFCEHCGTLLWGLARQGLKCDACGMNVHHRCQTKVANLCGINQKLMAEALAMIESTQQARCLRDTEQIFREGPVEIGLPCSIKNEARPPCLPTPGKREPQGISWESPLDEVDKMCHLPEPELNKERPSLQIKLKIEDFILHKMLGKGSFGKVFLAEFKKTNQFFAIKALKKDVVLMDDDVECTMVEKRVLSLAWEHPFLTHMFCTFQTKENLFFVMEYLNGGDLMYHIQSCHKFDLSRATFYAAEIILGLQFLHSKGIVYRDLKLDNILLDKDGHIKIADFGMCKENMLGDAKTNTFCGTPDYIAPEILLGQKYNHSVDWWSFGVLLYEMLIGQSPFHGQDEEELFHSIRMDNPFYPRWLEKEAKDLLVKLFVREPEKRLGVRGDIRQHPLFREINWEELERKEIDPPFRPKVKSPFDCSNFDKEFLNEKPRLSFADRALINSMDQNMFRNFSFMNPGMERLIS

Structure (SMILES)	kinase still bound, per cent of control (SRPK1 (human)) [%]	kinase still bound, per cent of control (MYLK (human)) [%]	kinase still bound, per cent of control (CSNK2A1 (human)) [%]	kinase still bound, per cent of control (LATS1 (human)) [%]	kinase still bound, per cent of control (PRKCQ (human)) [%]	kinase still bound, per cent of control (PRKCH (human)) [%]	kinase still bound, per cent of control (NUAK2 (human)) [%]	kinase still bound, per cent of control (RIPK1 (human)) [%]	kinase still bound, per cent of control (MKNK1 (human)) [%]	kinase still bound, per cent of control (AURKC (human)) [%]	kinase still bound, per cent of control (CLK1 (human)) [%]	kinase still bound, per cent of control (FLT4 (human)) [%]	kinase still bound, per cent of control (MELK (human)) [%]	kinase still bound, per cent of control (MAP4K4 (human)) [%]	kinase still bound, per cent of control (CAMK2D (human)) [%]	kinase still bound, per cent of control (STK35 (human)) [%]	kinase still bound, per cent of control (BRSK1 (human)) [%]	kinase still bound, per cent of control (CSNK2A2 (human)) [%]	kinase still bound, per cent of control (ERBB2 (human)) [%]	kinase still bound, per cent of control (CDK9 (human)) [%]	also measured
C=CC(=O)Nc1cc(NC(=O)c2ccc(C)c(NC(=O)c3ccno3)c2)cc(C(F)(F)F)c1	86	100	100	100	100	100	97	100	100	100	93	100	100	88	83	100	100	81	100	100	kinase still bound, per cent of control (PAK1 (human)): 79%; kinase still bound, per cent of control (CDC2L2 (human)): 94%; kinase still bound, per cent of control (TNIK (human)): 100%; kinase still bound, per cent of control (MST4 (human)): 91%; kinase still bound, per cent of control (PRKD1 (human)): 100%; kinase still bound, per cent of control (MAPK6 (human)): 100%; kinase still bound, per cent of control (NLK (human)): 93%; kinase still bound, per cent of control (AKT3 (human)): 100%; kinase still bound, per cent of control (LIMK2 (human)): 96%; kinase still bound, per cent of control (CAMK2B (human)): 100%; kinase still bound, per cent of control (AKT2 (human)): 100%; kinase still bound, per cent of control (CSNK1G2 (human)): 100%; kinase still bound, per cent of control (PRKAA1 (human)): 100%; kinase still bound, per cent of control (SIK2 (human)): 100%; kinase still bound, per cent of control (FGR (human)): 63%; kinase still bound, per cent of control (RPS6KA4 KD2 (human)): 94%; kinase still bound, per cent of control (CDK8 (human)): 100%; kinase still bound, per cent of control (CSNK1G3 (human)): 96%; kinase still bound, per cent of control (CAMK2A (human)): 91%; kinase still bound, per cent of control (RIOK1 (human)): 100%
O=C(NC1CC1)c1cccc(-c2ccc3c(NC(=O)C4CC4)n[nH]c3c2)c1	43	63	62	61	100	100	24	0.05	69	8.6	77	100	64	84	84	16	64	16	100	93	kinase still bound, per cent of control (PAK1 (human)): 70%; kinase still bound, per cent of control (CDC2L2 (human)): 85%; kinase still bound, per cent of control (TNIK (human)): 25%; kinase still bound, per cent of control (MST4 (human)): 94%; kinase still bound, per cent of control (PRKD1 (human)): 100%; kinase still bound, per cent of control (MAPK6 (human)): 78%; kinase still bound, per cent of control (NLK (human)): 31%; kinase still bound, per cent of control (AKT3 (human)): 100%; kinase still bound, per cent of control (LIMK2 (human)): 98%; kinase still bound, per cent of control (CAMK2B (human)): 84%; kinase still bound, per cent of control (AKT2 (human)): 91%; kinase still bound, per cent of control (CSNK1G2 (human)): 94%; kinase still bound, per cent of control (PRKAA1 (human)): 60%; kinase still bound, per cent of control (SIK2 (human)): 91%; kinase still bound, per cent of control (FGR (human)): 100%; kinase still bound, per cent of control (RPS6KA4 KD2 (human)): 100%; kinase still bound, per cent of control (CDK8 (human)): 76%; kinase still bound, per cent of control (CSNK1G3 (human)): 98%; kinase still bound, per cent of control (CAMK2A (human)): 88%; kinase still bound, per cent of control (RIOK1 (human)): 10%
